Like-named read-outs stand apart in the source and are kept apart here.

The values below come from patent US20230131899A1, “INHIBITORS OF MICROBIALLY INDUCED AMYLOID” (Axial Therapeutics, Inc., priority 2020, published 2023).

In this assay the target is T1, E. coli CsgA (Escherichia coli, UniProt P28307).
T1 construct: made in house; host or cells: E. coli NEB 3016 slyD::kan, pET11d
In words: In vitro ThioflavinT assay of CsgA aggregation (CsgA ThT Assay). Type of assay: biochemical. The settings on record: for remaining activity at 25 µM / CsgA ThT Assay (10 μM CsgA) % Control AUC at 1005 minutes, 25 μM (activity range) / CsgA ThT Assay (10 μM CsgA) % Control AUC at 1005 minutes, 25 μM: compound 25 μM; for remaining activity at 100 µM / CsgA ThT Assay (10 μM CsgA) % Control AUC at 1005 minutes, 100 μM (activity range) / CsgA ThT Assay (10 μM CsgA) % Control AUC at 1005 minutes, 100 μM: compound 100 μM; for CsgA ThT Assay (10 μM CsgA) % Control AUC at 1005 minutes, 25 μM / CsgA ThT Assay (10 μM CsgA) % Control AUC at 1005 minutes, 100 μM: mean AUC as % of DMSO control. The gist of the method: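 Purified C-terminal His-tagged CsgA, monomerised by desalting and 30-kDa filtration, at 2-20 μM with 20-40 μM ThT in 50 mM potassium phosphate pH 7.3, 1% DMSO, compounds 3.125-200 uM; room temperature, fluorescence (ex 438/em 495 nm) read every 15 min. Background-subtracted signal expressed as percent inhibition versus vehicle at 6-6.5 or 8-9 h, or as percent control AUC.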

The mark [1] stands for this setting: read-out: CsgA ThT Assay (10 μM CsgA) % Control AUC at 1005 minutes, 25 μM (activity range), CsgA 10 μM, black plates, 1005 minutes, class symbol.
Setting [2] is: read-out: CsgA ThT Assay (10 μM CsgA) % Control AUC at 1005 minutes, 25 μM, mean AUC as % of DMSO control, CsgA 10 μM, black plates, 1005 minutes.
[3] abbreviates: read-out: CsgA ThT Assay (10 μM CsgA) % Control AUC at 1005 minutes, 100 μM (activity range), CsgA 10 μM, black plates, 1005 minutes, class symbol.
Setting [4] is: read-out: CsgA ThT Assay (10 μM CsgA) % Control AUC at 1005 minutes, 100 μM, mean AUC as % of DMSO control, CsgA 10 μM, black plates, 1005 minutes.
Where [5] appears, read: read-out: CsgA ThT Assay (2 μM CsgA) % Control Bmax 25 μM, activity range, class symbol, CsgA 2 μM, white plates.
Setting [6] is: read-out: CsgA ThT Assay (2 μM CsgA) % Control Bmax 25 μM, mean Bmax as percentage of DMSO control, CsgA 2 μM, white plates.
Setting [7] is: read-out: CsgA ThT Assay (2 μM CsgA) % Control Bmax 100 μM, activity range, class symbol, CsgA 2 μM, white plates.
Setting [8] is: read-out: CsgA ThT Assay (2 μM CsgA) % Control Bmax 100 μM, mean Bmax as percentage of DMSO control, CsgA 2 μM, white plates.
[9] abbreviates: CsgA 10 μM, black plates, 1005 minutes, class symbol.
Where [10] appears, read: CsgA 10 μM, black plates, 1005 minutes.

T1 sequence (P28307 23-151): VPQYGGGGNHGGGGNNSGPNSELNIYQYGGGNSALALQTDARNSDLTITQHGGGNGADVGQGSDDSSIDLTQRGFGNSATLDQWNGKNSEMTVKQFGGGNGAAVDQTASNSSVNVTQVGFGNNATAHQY

For `O=C(O)C1CN(C[C@@H](O)CO)S(=O)(=O)c2c(-c3cccc(C(F)(F)F)c3)c(Cc3cccc4ccccc34)cc(=O)n21` (mixture of isomers) [Compound 065b, 2-((R)-2,3-dihydroxypropyl)-8-(naphthalen-1-ylmethyl)-6-oxo-9-(3-(trifluoromethyl)phenyl)-3,4-dihydro-2H,6H-pyrido[1,2-e][1,2,5]thiadiazine-4-carboxylic acid 1,1-dioxide], the remaining activity at 25 µM is, setting by setting: under setting [1], above 60%; under setting [2], 66%. Also, the remaining activity at 100 µM reads like this: under setting [3], 11 to 31%; under setting [4], 16%.
The corresponding values for `O=C(O)C1CN(C[C@H](O)[C@@H](O)[C@H](O)[C@H](O)CO)S(=O)(=O)c2c(-c3cccc(C(F)(F)F)c3)c(Cc3cccc4ccccc34)cc(=O)n21` (mixture of isomers) [Compound 066, 8-(naphthalen-1-ylmethyl)-6-oxo-2-((2S,3R,4R,5R)-2,3,4,5,6-pentahydroxyhexyl)-9-(3-(trifluoromethyl)phenyl)-3,4-dihydro-2H,6H-pyrido[1,2-e][1,2,5]thiadiazine-4-carboxylic acid 1,1-dioxide] are above 60%, 88%, 11 to 31% and 29%.
As for `O=C(O)[C@H]1CN(Cc2ccccc2)c2c(-c3cccc(C(F)(F)F)c3)c(Cc3cccc4ccccc34)c(Cl)c(=O)n21` (single isomer, unassigned) [Compound 004b], the remaining activity at 25 µM under setting [5] was in the range of 31 to 60% and the remaining activity at 25 µM under setting [6] stood at 54%. Also, the remaining activity at 100 µM was 31 to 60% under setting [7] and 40% under setting [8].
With `CCCN1CC(C(=O)O)n2c(c(-c3cccc(C(F)(F)F)c3)c(Cc3cccc4ccccc34)cc2=O)S1(=O)=O` (single isomer, unassigned) [Compound 016b, 8-(naphthalen-1-ylmethyl)-6-oxo-2-propyl-9-(3-(trifluoromethyl)phenyl)-3,4-dihydro-2H,6H-pyrido[1,2-e][1,2,5]thiadiazine-4-carboxylic acid 1,1-dioxide], under setting [9], the “CsgA ThT Assay (10 μM CsgA) % Control AUC at 1005 minutes, 25 μM (activity range)” value is “(++) (% control AUC of 31 to 60%)” and the “CsgA ThT Assay (10 μM CsgA) % Control AUC at 1005 minutes, 100 μM (activity range)” value is on record as “(+++) (% control AUC of 11 to 31%)”. In addition, under setting [10], the “CsgA ThT Assay (10 μM CsgA) % Control AUC at 1005 minutes, 25 μM” value is reported as 33% and the “CsgA ThT Assay (10 μM CsgA) % Control AUC at 1005 minutes, 100 μM” value came out at 23%.
As for `Nc1c(Cc2cccc3ccccc23)c(-c2cccc(C(F)(F)F)c2)c2n(c1=O)C(C(=O)O)CS2` (single isomer, unassigned) [Compound 020b, 6-amino-7-(naphthalen-1-ylmethyl)-5-oxo-8-(3-(trifluoromethyl)phenyl)-2,3-dihydro-5H-thiazolo[3,2-a]pyridine-3-carboxylic acid], under setting [9], the “CsgA ThT Assay (10 μM CsgA) % Control AUC at 1005 minutes, 25 μM (activity range)” value is “(+++) (% control AUC of 11 to 31%)” and the “CsgA ThT Assay (10 μM CsgA) % Control AUC at 1005 minutes, 100 μM (activity range)” value is on record as “(+++) (% control AUC of 11 to 31%)”. Under setting [10], the “CsgA ThT Assay (10 μM CsgA) % Control AUC at 1005 minutes, 25 μM” value stood at 26% and the “CsgA ThT Assay (10 μM CsgA) % Control AUC at 1005 minutes, 100 μM” value is recorded as 16%.
With `CCCCCN1CC(C(=O)O)n2c(c(-c3cccc(C(F)(F)F)c3)c(Cc3cccc4ccccc34)cc2=O)S1(=O)=O` (single isomer, unassigned) [Compound 025a, 8-(naphthalen-1-ylmethyl)-6-oxo-2-pentyl-9-(3-(trifluoromethyl)phenyl)-3,4-dihydro-2H,6H-pyrido[1,2-e][1,2,5]thiadiazine-4-carboxylic acid 1,1-dioxide], the “CsgA ThT Assay (10 μM CsgA) % Control AUC at 1005 minutes, 100 μM” value under setting [10] is on record as 143%. In addition, the remaining activity at 25 µM was 31 to 60% under setting [1] and 38% under setting [2]. The remaining activity at 100 µM under setting [3] is above 60%.
For the molecule `O=C(O)C1CN(Cc2ccccc2)c2c(-c3cccc(C(F)(F)F)c3)c(Cc3cccc4ccccc34)c(Br)c(=O)n21` (stereo not shown) [Compound 003, 1-benzyl-6-bromo-7-(naphthalen-1-ylmethyl)-5-oxo-8-(3-(trifluoromethyl)phenyl)-1,2,3,5-tetrahydroimidazo[1,2-a]pyridine-3-carboxylic acid], the remaining activity at 25 µM is, setting by setting: under setting [5], 31 to 60%; under setting [6], 54%. Besides, the remaining activity at 100 µM is, setting by setting: under setting [7], 11 to 31%; under setting [8], 16%.
The corresponding values for `O=C(O)C1CN(Cc2ccccc2)c2c(-c3cccc(C(F)(F)F)c3)c(Cc3cccc4ccccc34)c(Cl)c(=O)n21` (stereo not shown) [Compound 004, 1-benzyl-6-chloro-7-(naphthalen-1-ylmethyl)-5-oxo-8-(3-(trifluoromethyl)phenyl)-1,2,3,5-tetrahydroimidazo[1,2-a]pyridine-3-carboxylic acid] are 31 to 60%, 57%, 11 to 31% and 26%.
Turning to `CNC(=O)C1CN(C)S(=O)(=O)c2c(-c3cccc(C(F)(F)F)c3)c(Cc3cccc4ccccc34)cc(=O)n21` (stereo not shown) [Compound 031, N,2-dimethyl-8-(naphthalen-1-ylmethyl)-6-oxo-9-(3-(trifluoromethyl)phenyl)-3,4-dihydro-2H,6H-pyrido[1,2-e][1,2,5]thiadiazine-4-carboxamide 1,1-dioxide], the remaining activity at 25 µM runs as follows: under setting [1], above 60%; under setting [2], 100%. Moreover, the remaining activity at 100 µM was above 60% under setting [3] and 99% under setting [4].
On to `CN(C)C(=O)C1CN(C)S(=O)(=O)c2c(-c3cccc(C(F)(F)F)c3)c(Cc3cccc4ccccc34)cc(=O)n21` (stereo not shown) [Compound 032, N,N-2-trimethyl-8-(naphthalen-1-ylmethyl)-6-oxo-9-(3-(trifluoromethyl)phenyl)-3,4-dihydro-2H,6H-pyrido[1,2-e][1,2,5]thiadiazine-4-carboxamide 1,1-dioxide], for which the remaining activity at 25 µM is above 60% under setting [1] and 92% under setting [2].
Consider `Cn1c(=O)c2c(ncn2CCCCN2CC(C(=O)O)n3c(c(-c4cccc(C(F)(F)F)c4)c(Cc4cccc5ccccc45)cc3=O)S2(=O)=O)n(C)c1=O` (stereo not shown) [Compound 033, 2-(4-(1,3-dimethyl-2,6-dioxo-1,2,3,6-tetrahydro-7H-purin-7-yl)butyl)-8-(naphthalen-1-ylmethyl)-6-oxo-9-(3-(trifluoromethyl)phenyl)-3,4-dihydro-2H,6H-pyrido[1,2-e][1,2,5]thiadiazine-4-carboxylic acid 1,1-dioxide], for which the remaining activity at 25 µM is, setting by setting: under setting [1], above 60%; under setting [2], 68%. Further, the remaining activity at 100 µM reads like this: under setting [3], above 60%; under setting [4], 79%.
Regarding `Cn1c(=O)c2c(ncn2CCCCCN2CC(C(=O)O)n3c(c(-c4cccc(C(F)(F)F)c4)c(Cc4cccc5ccccc45)cc3=O)S2(=O)=O)n(C)c1=O` (stereo not shown) [Compound 034, 2-(5-(1,3-dimethyl-2,6-dioxo-1,2,3,6-tetrahydro-7H-purin-7-yl)pentyl)-8-(naphthalen-1-ylmethyl)-6-oxo-9-(3-(trifluoromethyl)phenyl)-3,4-dihydro-2H,6H-pyrido[1,2-e][1,2,5]thiadiazine-4-carboxylic acid 1,1-dioxide], the remaining activity at 25 µM runs as follows: under setting [1], above 60%; under setting [2], 62%. Besides, the remaining activity at 100 µM reads like this: under setting [3], above 60%; under setting [4], 95%.
